The results in this text go back to US10577378B2, “EIF4A-inhibiting compounds and methods related thereto” (eFFECTOR Therapeutics, Inc., priority 2015, dated 2020).

The test concerns MDA-MB-231 human breast cancer cells. Briefly: Cell proliferation assay (CellTiter-Glo, 72 hours treatment). In kind it is cell-based. The following applies: Homo sapiens; MDA-MB-231 cells, 72 hours at 37° C., CellTiter-Glo; read-out: MDA-MB-231 cell proliferation assay (IC50). The protocol:
Human tumor cell lines were cultured in the appropriate media (DMEM and RPMI) supplemented with penicillin G (100 U/ml), streptomycin (100 μg/ml), 10% FBS in a humidified atmosphere of 5% CO2 maintained at 37° C. Exponentially growing cells were seeded at 2,500 cells/well in 96 well plates prior to drug treatment. The following day, cells were treated with either DMSO (vehicle control) or eIF4A inhibitors at the appropriate dose for 72 hours at 37° C. Following compound treatment, cell proliferation was assessed by CellTiter-Glo assay (Promega, Madison Wis.) according to the manufacturer's protocol. Dose-response curves were fitted by non-linear regression (sigmoidal dose response model) using KaleidaGraph (Synergy Software, Reading Pa.) and IC50 values were calculated.
To this end, IC50 values of less than 100 nM are labelled as “+++”, from 100 nM to 1000 nM are labelled as “++”, and greater than 1000 nM are labelled as “+” (NA means “not available”).
Background: In ATP-based viability assays light output follows the ATP content of the culture.

In the case of `COc1nccc2c1[C@]1(O)[C@H](O)[C@H](C(=O)N(C)C)[C@@H](c3ccccc3)[C@]1(c1ccc(C#N)cc1)O2` (racemic) [19F, rac-(5aR,6S,7R,8R,8aS)-5a-(4-cyanophenyl)-8,8a-dihydroxy-1-methoxy-N,N-dimethyl-6-phenyl-5a,7,8,8a-tetrahydro-6H-cyclopenta[4,5]furo[3,2-c]pyridine-7-carboxamide], the IC50 lay within 100 to 1000 nM.

In the case of `COc1cncc2c1[C@]1(O)[C@H](O)[C@H](C(=O)N(C)C)[C@@H](c3ccccc3)[C@]1(c1ccc(C#N)cc1)O2` (single isomer, unassigned) [64F], the IC50 is under 100 nM.

On to `CN(C)C(=O)[C@H]1[C@@H](O)[C@@]2(O)c3ncc(Cl)cc3O[C@@]2(c2ccc(F)cc2)[C@@H]1c1ccccc1` (single isomer, unassigned) [10F], for which the IC50 was over 1000 nM.

On to `COc1nc(Cl)cc2c1[C@]1(O)[C@H](O)[C@H](C(=O)N3CCC34CC4(F)F)[C@@H](c3ccccc3)[C@]1(c1ccc(Br)cc1)O2` (mixture of isomers) [219F, Rac-((5aR,6S,7R,8R,8aS)-5a-(4-bromophenyl)-3-chloro-8,8a-dihydroxy-1-methoxy-6-phenyl-5a,7,8,8a-tetrahydro-6H-cyclopenta[4,5]furo[3,2-c]pyridin-7-yl)(1,1-difluoro-4-azaspiro[2.3]hexan-4-yl)methanone], for which the IC50 was under 100 nM.

As to `COc1nc(C#N)cc2c1[C@]1(O)[C@H](O)[C@H](CN3CCN(C)CC3)[C@@H](c3ccccc3)[C@]1(c1ccc(C#N)cc1)O2` (racemic) [198Fb, Rac-(5aR,6S,7S,8R,8aS)-5a-(4-cyanophenyl)-8,8a-dihydroxy-1-methoxy-7-((4-methylpiperazin-1-yl)methyl)-6-phenyl-5a,7,8,8a-tetrahydro-6H-cyclopenta[4,5]furo[3,2-c]pyridine-3-carbonitrile], the IC50 was under 100 nM.

In the case of `COC[C@H]1[C@@H](O)[C@@]2(O)c3ncc(Cl)cc3O[C@@]2(c2ccc(Br)cc2)[C@@H]1c1ccccc1` (racemic) [62F, rac-(5aR,6S,7S,8R,8aS)-5a-(4-bromophenyl)-3-chloro-7-(methoxymethyl)-6-phenyl-5a,6,7,8-tetrahydro-8aH-cyclopenta[4,5]furo[3,2-b]pyridine-8,8a-diol], the IC50 was in the range of 100 to 1000 nM.

In the case of `COc1cncc2c1[C@]1(O)[C@H](O)[C@H](C(=O)N3CC4(COC4)C3)[C@@H](c3ccccc3)[C@]1(c1ccc(Br)cc1)O2` (racemic) [235F, Rac-((4bS,5R,6R,7S,7aR)-7a-(4-bromophenyl)-4b,5-dihydroxy-4-methoxy-7-phenyl-4b,6,7,7a-tetrahydro-5H-cyclopenta[4,5]furo[2,3-c]pyridin-6-yl)(2-oxa-6-azaspiro[3.3]heptan-6-yl)methanone], the IC50 was under 100 nM.

For `COc1nc(C#N)cc2c1[C@]1(O)[C@H](O)[C@H](CN3CCCC(F)(F)C3)[C@@H](c3ccccc3)[C@]1(c1ccc(C#N)cc1)O2` (racemic) [154F, Rac-(5aR,6S,7S,8R,8aS)-5a-(4-cyanophenyl)-7-((3,3-difluoropiperidin-1-yl)methyl)-8,8a-dihydroxy-1-methoxy-6-phenyl-5a,7,8,8a-tetrahydro-6H-cyclopenta[4,5]furo[3,2-c]pyridine-3-carbonitrile], the IC50 was in the range of 100 to 1000 nM.

As to `COc1cncc2c1[C@]1(O)[C@@H](CNCc3ccnn3C)[C@H](CO)[C@@H](c3ccccc3)[C@]1(c1ccc(Br)cc1)O2` (racemic) [203F, Rac-(4bR,5R,6R,7S,7aR)-7a-(4-bromophenyl)-6-(hydroxymethyl)-4-methoxy-5-((((1-methyl-1H-pyrazol-5-yl)methyl)amino)methyl)-7-phenyl-5,6,7,7a-tetrahydro-4bH-cyclopenta[4,5]furo[2,3-c]pyridin-4b-ol], the IC50 was under 100 nM.

Turning to `COc1cncc2c1[C@]1(O)[C@H](O)[C@H](C(=O)N3[C@@H]4CC[C@H]3COC4)[C@@H](c3ccccc3)[C@]1(c1ccc(Br)cc1)O2` (racemic) [264F, Rac-((1R,5S)-3-oxa-8-azabicyclo[3.2.1]octan-8-yl)((4bS,5R,6R,7S,7aR)-7a-(4-bromophenyl)-4b,5-dihydroxy-4-methoxy-7-phenyl-4b,6,7,7a-tetrahydro-5H-cyclopenta[4,5]furo[2,3-c]pyridin-6-yl)methanone], the IC50 was under 100 nM.

With `N#C[C@@H]1C[C@@H](c2ccccc2)[C@]2(c3ccc(Br)cc3)Oc3cc(Cl)cnc3[C@]12O` (racemic) [47F, Rac-(5aR,6S,8S,8aR)-5a-(4-bromophenyl)-3-chloro-8a-hydroxy-6-phenyl-5a,7,8,8a-tetrahydro-6H-cyclopenta[4,5]furo[3,2-b]pyridine-8-carbonitrile], the IC50 was over 1000 nM.

As to `COc1cncc2c1[C@]1(O)[C@H](O)[C@H](C(=O)NCC(F)F)[C@@H](c3ccccc3)[C@]1(c1ccc(C(F)(F)F)cc1)O2` (racemic) [285F, Rac-(4bS,5R,6R,7S,7aR)—N-(2,2-difluoroethyl)-4b,5-dihydroxy-4-methoxy-7-phenyl-7a-(4-(trifluoromethyl)phenyl)-4b,6,7,7a-tetrahydro-5H-cyclopenta[4,5]furo[2,3-c]pyridine-6-carboxamide], the IC50 fell in the range of 100 to 1000 nM.

`COc1cnc2c(c1)O[C@@]1(c3ccc(C#N)cc3)[C@H](c3ccccc3)[C@@H](C(=O)N(C)C)[C@@H](O)[C@@]21O` (single isomer, unassigned) [6F]: the IC50 lay in the range of 100 to 1000 nM.

`CCNC[C@@H]1[C@@H](c2ccccc2)[C@]2(C3=CC=C(C#N)CC3)Oc3cncc(OC)c3[C@]2(O)[C@@H]1O` (racemic) [70F, Rac-4-((4bS,5R,6S,7S,7aR)-6-((ethylamino)methyl)-4b,5-dihydroxy-4-methoxy-7-phenyl-4b,5,6,7-tetrahydro-7aH-cyclopenta[4,5]furo[2,3-c]pyridin-7a-yl)cyclohexa-1,3-diene-1-carbonitrile]: the IC50 was in the range of 100 to 1000 nM.

On to `COc1cncc2c1[C@]1(O)[C@@H](CN)C[C@@H](c3ccccc3)[C@]1(c1ccc(C#N)cc1)O2` (racemic) [173F, Rac-4-((4bR,5R,7S,7aR)-5-(aminomethyl)-4b-hydroxy-4-methoxy-7-phenyl-4b,5,6,7-tetrahydro-7aH-cyclopenta[4,5]furo[2,3-c]pyridin-7a-yl)benzonitrile], for which the IC50 is under 100 nM.

As for `COCCNC(=O)[C@H]1[C@@H](O)[C@@]2(O)c3c(OC)cncc3O[C@@]2(c2ccc(Br)cc2)[C@@H]1c1ccccc1` (racemic) [262F, Rac-(4bS,5R,6R,7S,7aR)-7a-(4-bromophenyl)-4b,5-dihydroxy-4-methoxy-N-(2-methoxyethyl)-7-phenyl-4b,6,7,7a-tetrahydro-5H-cyclopenta[4,5]furo[2,3-c]pyridine-6-carboxamide], the IC50 was under 100 nM.

With `C[C@H]1[C@@H](O)[C@@]2(O)c3ncc(Cl)cc3O[C@@]2(c2ccc(Br)cc2)[C@@H]1c1ccccc1` (racemic) [57F, Rac-(5aR,6S,7R,8R,8aS)-5a-(4-bromophenyl)-3-chloro-7-methyl-6-phenyl-5a,6,7,8-tetrahydro-8aH-cyclopenta[4,5]furo[3,2-b]pyridine-8,8a-diol], the IC50 was over 1000 nM.

Consider `COc1cncc2c1[C@]1(O)[C@H](O)[C@H](C(=O)N(C)CC(F)(F)F)[C@@H](c3ccccc3)[C@]1(c1ccc(Br)cc1)O2` (racemic) [88F, Rac-(4bS,5R,6R,7S,7aR)-7a-(4-bromophenyl)-4b,5-dihydroxy-4-methoxy-N-methyl-7-phenyl-N-(2,2,2-trifluoroethyl)-4b,6,7,7a-tetrahydro-5H-cyclopenta[4,5]furo[2,3-c]pyridine-6-carboxamide], for which the IC50 was under 100 nM.
